The values that follow are results of earlier work, collected in patent US20180027805A1, “ACID HERBICIDE-CONTAINING COMPOSITIONS, PRECURSORS, DERIVATIVES, AND METHODS” (priority 2015, published 2018).

Usually pKa stands for the negative logarithm of the acid dissociation constant.

For the molecule Imazamethbenz, the pKa was 2.9.

With `N#Cc1cc(Br)c(O)c(Br)c1` [Bromoxynil], the pKa is recorded as 4.06.

With `O=C(O)CCCOc1ccc(Cl)cc1Cl` [2,4-DB], the pKa is listed as 4.8.

Turning to `O=C(O)COc1nc(Cl)c(Cl)cc1Cl` [Triclopyr, 3,5,6-trichloro-2-pyridyloxyacetic acid], the pKa was 2.68.

Turning to `O=C(O)c1cc(Oc2ccc(C(F)(F)F)cc2Cl)ccc1[N+](=O)[O-]` [Acifluorfen], the pKa is 3.86.

Take `C[C@@H](Oc1ccc(Oc2ccc(C(F)(F)F)cn2)cc1)C(=O)O` [Fluazifop-p]: the pKa is recorded as 2.98.

As for `Nc1c(Cl)c(Cl)nc(C(=O)O)c1Cl` [Picloram], the pKa is given as 2.3.

Take `CC(Oc1ccc(Oc2ccc(Cl)cc2Cl)cc1)C(=O)O` (centres unmarked) [Diclofop]: the pKa is given as 3.57.

As to `CC(C)C1(C)N=C(c2nc3ccccc3cc2C(=O)O)NC1=O` (centres unmarked) [Imazaquin], the pKa is recorded as 3.8.

On to `COc1c(Cl)ccc(Cl)c1C(=O)O` [Dicamba, 3,6-dichloro-O-anisic acid], for which the pKa is reported as 1.87.

In the case of `CC(Oc1ccc(Oc2ncc(C(F)(F)F)cc2Cl)cc1)C(=O)O` (centres unmarked) [Haloxyfop], the pKa is 4.33.
